Data reported in patent US20190119284A1, “ErbB Inhibitors and Uses Thereof” (The Regents of the University of California, priority 2016, published 2019).
“And” between values parts separate entries of the source, which are not always exact repeats. Equal values may be shown once. Read-outs that look alike come from different tables or passages of the source.

Tests used:
[1] = Pharmacokinetic study, IP administration in male CD-1 mice; assay type: in vivo
[2] = Pharmacokinetic study, IV administration in male CD-1 mice; assay type: in vivo; settings: for AUCExtra / AUC0-inf / AUC0-last / AUCall / C0 / Cl / MRT0-last / T½ / Vd / AUC / AUC(0-t) / clearance / concentration at 0.08 h / concentration at 0.25 h / concentration at 1 h / concentration at 3 h / concentration at 5 h / concentration at 8 h / concentration at 24 h / MRT last / half-life: plasma; for half-life: read-out: T½ (converted)
[3] = Mouse Liver Microsome stability assay; assay type: in vitro ADME; settings: mouse liver microsomes
[4] = IP 2.0 mg/kg, individual mice M1-M3
[5] = IP 2.0 mg/kg, individual mice M1-M3, 2 mg/kg
[6] = IP 2.0 mg/kg, plasma, individual mice M1-M3, 2 mg/kg
[7] = male, CD-1, mouse, plasma, ip, 2 mg/kg, Mean
[8] = male, CD-1, mouse, plasma, ip, 2 mg/kg, Mean, read-out: AUC0-inf
[9] = male, CD-1, mouse, plasma, ip, 2 mg/kg, Mean, read-out: Cmax
[10] = male, CD-1, mouse, plasma, ip, 2 mg/kg, Mean, read-out: MRT0-last
[11] = male, CD-1, mouse, plasma, ip, 2 mg/kg, individual mice M1-M3
[12] = male, CD-1, mouse, plasma, ip, 2 mg/kg, individual mice M1-M3, read-out: AUC0-inf
[13] = male, CD-1, mouse, plasma, ip, 2 mg/kg, individual mice M1-M3, read-out: Cmax
[14] = male, CD-1, mouse, IP 2.0 mg/kg, plasma, individual mice M1-M3
[15] = IV 2.0 mg/kg, individual mice M1-M3, 2 mg/kg
[16] = male, CD-1, mouse, iv, 2 mg/kg, Mean
[17] = male, CD-1, mouse, iv, 2 mg/kg, Mean, read-out: AUC0-inf
[18] = male, CD-1, mouse, iv, 2 mg/kg, Mean, read-out: C0
[19] = male, CD-1, mouse, iv, 2 mg/kg, Mean, read-out: MRT0-last
[20] = male, CD-1, mouse, iv, 2 mg/kg, Mean, read-out: Vd
[21] = male, CD-1, mouse, iv, 2 mg/kg, individual mice M1-M3
[22] = male, CD-1, mouse, iv, 2 mg/kg, individual mice M1-M3, read-out: C0
[23] = male, CD-1, mouse, iv, 2 mg/kg, individual mice M1-M3, read-out: MRT0-last
[24] = male, CD-1, mouse, iv, 2 mg/kg, individual mice M1-M3, read-out: Vd

**Q.** What does the source list for `COc1ccc(-c2cccc(F)c2)cc1Nc1ncnc2[nH]nc(-c3cc[nH]n3)c12` [8168B]?
**A.** Plasma Concentration at 5.00 h ([1]; IP 2.0 mg/kg, Mean): BLQ; Plasma Concentration at 8.00 h ([1]; IP 2.0 mg/kg, Mean): BLQ; Plasma Concentration at 24.00 h ([1]; IP 2.0 mg/kg, Mean): BLQ; Plasma Concentration at 5.00 h [1, 4]: BLQ; Plasma Concentration at 8.00 h [1, 4]: BLQ; Plasma Concentration at 24.00 h [1, 4]: BLQ; Plasma Concentration at 0.25 h [1, 5]: 189.54 ng/mL and 198.56 ng/mL; Plasma Concentration at 1.00 h [1, 5]: 69.73 ng/mL and 76.68 ng/mL; Plasma Concentration at 3.00 h [1, 5]: 4.17 ng/mL and 2.33 ng/mL; AUCExtra ([1]; IP 2.0 mg/kg, plasma, Mean): 1.11%; AUC0-inf [1, 6]: 163.10 ng·h/mL and 164.87 ng·h/mL; AUC0-last [1, 6]: 160.10 ng·h/mL and 163.46 ng·h/mL; AUCExtra [1, 6]: 0.63% and 1.84% and 0.86%; AUCall [1, 6]: 160.10 ng·h/mL and 163.46 ng·h/mL; Cmax [1, 6]: 189.54 ng/mL and 198.56 ng/mL; Half-life (T½) [1, 6]: 30 min and 25.2 min; MRT0-last [1, 6]: 48.6 min; AUC [1, 7]: 175 ng·h/mL; AUC(0-t) [1, 7]: 175 ng·h/mL; concentration at 0.25 h [1, 7]: 210 ng/mL; concentration at 1 h [1, 7]: 82.3 ng/mL; concentration at 3 h [1, 7]: 2.92 ng/mL; AUC0-inf [1, 8]: 177 ng·h/mL; Cmax [1, 9]: 210 ng/mL; MRT last [1, 10]: 46.8 min; Half-life (T½) ([1]; male, CD-1, mouse, plasma, ip, 2 mg/kg, Mean, read-out: Oral T½ (converted)): 26.4 min; AUC [1, 11]: 203 ng·h/mL; AUC(0-t) [1, 11]: 203 ng·h/mL; concentration at 0.25 h [1, 11]: 242 ng/mL; concentration at 1 h [1, 11]: 101 ng/mL; concentration at 3 h [1, 11]: 2.25 ng/mL; AUC0-inf [1, 12]: 204 ng·h/mL; Cmax [1, 13]: 242 ng/mL; MRT last ([1]; male, CD-1, mouse, plasma, ip, 2 mg/kg, individual mice M1-M3, read-out: MRT0-last): 45.6 min; Half-life (T½) ([1]; male, CD-1, mouse, plasma, ip, 2 mg/kg, individual mice M1-M3, read-out: Oral T½ (converted)): 24 min; Tmax [1, 14]: 15 min; Plasma Concentration at 0.08 h [2, 15]: 53.28 ng/mL and 64.54 ng/mL; Plasma Concentration at 0.25 h [2, 15]: 29.14 ng/mL and 34.06 ng/mL; Plasma Concentration at 1.00 h [2, 15]: 22.71 ng/mL and 12.93 ng/mL; Plasma Concentration at 3.00 h [2, 15]: 11.36 ng/mL and 8.08 ng/mL; Plasma Concentration at 5.00 h [2, 15]: 7.57 ng/mL and 6.55 ng/mL; Plasma Concentration at 8.00 h [2, 15]: 7.32 ng/mL and 9.38 ng/mL; Plasma Concentration at 24.00 h [2, 15]: 5.33 ng/mL and 3.54 ng/mL; AUCExtra ([2]; IV 2.0 mg/kg, Mean): 46.09%; AUC0-inf [2, 15]: 3147.06 ng·h/mL and 487.06 ng·h/mL and 282.28 ng·h/mL; AUC0-last [2, 15]: 205.32 ng·h/mL and 185.37 ng·h/mL; AUCExtra [2, 15]: 94.18% and 57.85% and 34.33%; AUCall [2, 15]: 205.32 ng·h/mL and 185.37 ng·h/mL; C0 [2, 15]: 71.91 ng/mL and 88.67 ng/mL; Cl [2, 15]: 10.59 mL/min/kg and 68.44 mL/min/kg and 118.09 mL/min/kg; MRT0-last [2, 15]: 542 min; T½ [2, 15]: 302.57 h and 36.64 h and 18.98 h; Vd [2, 15]: 217.05 L/kg and 193.96 L/kg; AUC [2, 16]: 191 ng·h/mL; AUC(0-t) [2, 16]: 191 ng·h/mL; clearance [2, 16]: 93.3 mL/min/kg; concentration at 0.08 h [2, 16]: 58.9 ng/mL; concentration at 0.25 h [2, 16]: 31.6 ng/mL; concentration at 1 h [2, 16]: 17.8 ng/mL; concentration at 3 h [2, 16]: 9.72 ng/mL; concentration at 5 h [2, 16]: 7.06 ng/mL; concentration at 8 h [2, 16]: 8.35 ng/mL; concentration at 24 h [2, 16]: 4.44 ng/mL; AUC0-inf [2, 17]: 385 ng·h/mL; C0 [2, 18]: 77.7 ng/mL; MRT last [2, 19]: 568 min; half-life [2, 16]: 1670 min; Vd [2, 20]: 206 L/kg; AUC [2, 21]: 183 ng·h/mL; AUC(0-t) [2, 21]: 183 ng·h/mL; concentration at 0.08 h [2, 21]: 55.1 ng/mL; concentration at 0.25 h [2, 21]: 31.9 ng/mL; concentration at 1 h [2, 21]: 12.3 ng/mL; concentration at 3 h [2, 21]: 6.96 ng/mL; concentration at 5 h [2, 21]: 7.32 ng/mL; concentration at 8 h [2, 21]: 6.02 ng/mL; concentration at 24 h [2, 21]: 6.79 ng/mL; C0 [2, 22]: 72.4 ng/mL; MRT last [2, 23]: 618 min; Vd [2, 24]: 277 L/kg; WuXi Microsomal stability (Mouse Extraction Ratio) [3]: <0.3

**Q.** Which results are given for `COc1ccc(-c2ccc(F)cc2)cc1Nc1ncnc2[nH]nc(-c3cc[nH]n3)c12` [8168C]?
**A.** Plasma Concentration at 5.00 h ([1]; IP 2.0 mg/kg, Mean): BLQ; Plasma Concentration at 8.00 h ([1]; IP 2.0 mg/kg, Mean): BLQ; Plasma Concentration at 24.00 h ([1]; IP 2.0 mg/kg, Mean): BLQ; Plasma Concentration at 8.00 h [1, 4]: BLQ; Plasma Concentration at 24.00 h [1, 4]: BLQ; Plasma Concentration at 0.25 h [1, 5]: 306.24 ng/mL and 169.92 ng/mL; Plasma Concentration at 1.00 h [1, 5]: 69.88 ng/mL and 66.74 ng/mL; Plasma Concentration at 3.00 h [1, 5]: 9.75 ng/mL and 2.05 ng/mL and BLQ; Plasma Concentration at 5.00 h [1, 5]: BLQ; AUCExtra ([1]; IP 2.0 mg/kg, plasma, Mean): 0.96%; AUC0-inf [1, 6]: 197.83 ng·h/mL; AUC0-last [1, 6]: 208.92 ng·h/mL and 196.69 ng·h/mL and 104.05 ng·h/mL; AUCExtra [1, 6]: 1.35% and 0.57%; AUCall [1, 6]: 208.92 ng·h/mL and 196.69 ng·h/mL and 104.05 ng·h/mL; Cmax [1, 6]: 306.24 ng/mL and 169.92 ng/mL; Half-life (T½) [1, 6]: 47.4 min and 22.8 min; MRT0-last [1, 6]: 63.6 min and 40.2 min and 30 min; Half-life (T½) ([1]; male, CD-1, mouse, plasma, intraperitoneal, 2 mg/kg, IP 2.0 mg/kg, Mean, read-out: Oral T½ (converted)): 35.4 min; AUC [1, 7]: 170 ng·h/mL; AUC(0-t) [1, 7]: 170 ng·h/mL; concentration at 0.25 h [1, 7]: 228 ng/mL; concentration at 1 h [1, 7]: 73.9 ng/mL; concentration at 3 h [1, 7]: 5.9 ng/mL; AUC0-inf [1, 8]: 205 ng·h/mL; Cmax [1, 9]: 228 ng/mL; MRT last [1, 10]: 44.4 min; concentration at 0.25 h [1, 11]: 207 ng/mL; concentration at 1 h [1, 11]: 85.2 ng/mL; concentration at 5 h [1, 11]: 2.52 ng/mL; AUC0-inf [1, 12]: 212 ng·h/mL; Cmax [1, 13]: 207 ng/mL; Tmax [1, 14]: 15 min; Plasma Concentration at 24.00 h ([2]; IV 2.0 mg/kg, Mean): BLQ; Plasma Concentration at 24.00 h ([2]; IV 2.0 mg/kg, individual mice M1-M3): BLQ; Plasma Concentration at 0.08 h [2, 15]: 643.79 ng/mL and 668.53 ng/mL; Plasma Concentration at 0.25 h [2, 15]: 361.85 ng/mL and 533.91 ng/mL; Plasma Concentration at 1.00 h [2, 15]: 124.19 ng/mL and 132.77 ng/mL; Plasma Concentration at 3.00 h [2, 15]: 16.88 ng/mL and 24.59 ng/mL; Plasma Concentration at 5.00 h [2, 15]: 4.53 ng/mL and 8.17 ng/mL and 9.69 ng/mL; Plasma Concentration at 8.00 h [2, 15]: 1.79 ng/mL and BLQ and 4.14 ng/mL; AUCExtra ([2]; IV 2.0 mg/kg, Mean): 1.68%; AUC0-inf [2, 15]: 451.15 ng·h/mL and 566.58 ng·h/mL; AUC0-last [2, 15]: 441.82 ng·h/mL and 554.77 ng·h/mL; AUCExtra [2, 15]: 0.88% and 2.07% and 2.08%; AUCall [2, 15]: 441.82 ng·h/mL and 554.77 ng·h/mL; C0 [2, 15]: 857.24 ng/mL and 747.58 ng/mL; Cl [2, 15]: 73.89 mL/min/kg and 58.83 mL/min/kg; MRT0-last [2, 15]: 52.2 min and 65.4 min; T½ [2, 15]: 1.70 h and 0.79 h and 1.98 h; Vd [2, 15]: 5.06 L/kg and 10.07 L/kg; AUC [2, 16]: 497 ng·h/mL; AUC(0-t) [2, 16]: 497 ng·h/mL; clearance [2, 16]: 66.5 mL/min/kg; concentration at 0.08 h [2, 16]: 638 ng/mL; concentration at 0.25 h [2, 16]: 426 ng/mL; concentration at 1 h [2, 16]: 146 ng/mL; concentration at 3 h [2, 16]: 18.6 ng/mL; concentration at 5 h [2, 16]: 7.46 ng/mL; concentration at 8 h [2, 16]: 2.97 ng/mL; AUC0-inf [2, 17]: 506 ng·h/mL; C0 [2, 18]: 786 ng/mL; MRT last [2, 19]: 57.6 min; half-life [2, 16]: 89.4 min; Vd [2, 20]: 8.32 L/kg; AUC [2, 21]: 496 ng·h/mL; AUC(0-t) [2, 21]: 496 ng·h/mL; clearance [2, 21]: 66.7 mL/min/kg; concentration at 0.08 h [2, 21]: 601 ng/mL; concentration at 0.25 h [2, 21]: 382 ng/mL; concentration at 1 h [2, 21]: 181 ng/mL; concentration at 3 h [2, 21]: 14.3 ng/mL; AUC0-inf ([2]; male, CD-1, mouse, iv, 2 mg/kg, individual mice M1-M3, read-out: AUC0-inf): 500 ng·h/mL; C0 [2, 22]: 754 ng/mL; MRT last [2, 23]: 56.4 min; Vd [2, 24]: 9.82 L/kg; WuXi Microsomal stability (Mouse Extraction Ratio) [3]: 0.4
